In patent US20220073613A1, “ACTIVATABLE MASKED ANTI-CTLA4 BINDING PROTEINS” (Xilio Development, Inc., priority 2018, published 2022):
Entries after “also recorded” stand apart in the source; their conditions may differ.

What was measured:
9D9 antibody = assay: Surface Plasmon Resonance of masking peptide binding to 9D9 antibody; conditions: SPR, reference channel
Protocol: FIGS. 1A and 1B is a series of graphs showing in vitro analyses of anti-CTLA4 antibody occlusion by a masking peptide. Surface plasmon resonance (SPR) was performed to examine A) kinetics and B) affinity between 9D9 antibody (ligand) and masking peptide […] (analyte). Analytes were run in increasing concentrations of 2-fold serial dilutions from 0.1 to 50 μM at 37° C. Reference-subtracted response was plotted. SPR was performed three times and representative traces from one experiment are shown.
Surface Plasmon Resonance was performed on a GE Biacore T200 instrument at 37° C. The 9D9 antibody and isotype control (reference channel) were coupled at 100 RU immobilization level to CM5 chip (GE Healthcare). Peptides were synthesized and diluted into HBS-EP+ running buffer (GE Healthcare). The binding data were analyzed using Biacore Evaluation Software, version 3.0.

MC38 conditioned media = assay: AMSP-MS kinetic analysis of AK10 peptides, MC38; type: biochemical, mouse; conditions: MC38 serum-free conditioned media
Protocol: (§1) Ten sequences (AK10) shown in Table 19 were analyzed via AMSP-MS. These sequences were slightly modified from the original sequences to generate mass spectrometry-compatible peptides (in some cases adding basic residues to add positive charge) and spacing residues (GG) to produce longer ˜14-mer peptides. The peptides were prepared at a 500 nM final concentration in the AMSP-MS reaction. The AK10 library was also separately analyzed by LC-MS/MS for chemical validation of the peptide species. The AMSP-MS analysis was performed under standard substrate specificity profiling conditions, sampling time points during the reaction incubation at 0, 15, 60, 240 and 1200 min. Peptides were quantified by mass spectrometric label-free quantitation from the MS1 precursor ion peak areas for each peptide species. Enzyme progress curves were modeled in GraphPad Prism software v 8.0 and data were fitted using non-linear least squares fitting to the first order kinetic equation: where Y=percent product formation, Kobs is the observed rate, and t=time. In Michaelis-Menten kinetics, the observed rate Kobs is a function of the enzyme concentration and catalytic efficiency (kcat/KM). In this analysis of an enzyme mixture, Kobs was used to rank product cleavages.

NAT conditioned media = assay: AMSP-MS kinetic analysis of AK10 peptides, NAT; type: biochemical, human
Protocol: as §1

tumor conditioned media = assay: AMSP-MS kinetic analysis of AK10 peptides, patient tumor; type: biochemical, human
Protocol: as §1

MB49 tumors = assay: MB49 murine bladder tumor model, efficacy and pharmacodynamics; parameters: species or system C57/BL6-huCTLA4 mice; conditions: mouse, in vivo
Protocol: Efficacy and pharmacodynamics (PD) of anti-CTLA4 antibodies were assessed using the MB49 murine bladder tumor model. Efficacy was assessed by administering each test antibody (RSV-m control antibody, ipilimumab, Antibody 2-6, Antibody 2-14, and Antibody 2-15) and then assessing tumor volume and body weight. The anti-RSV control antibody contains S239D and I332E mutations (RSV-m control antibody). Peripheral immunophenotyping was also carried out on day 5, which assessed the percentage of CD4+Ki67+ cells and the percentage of CD4+ICOS+ cells in the peripheral blood on day 5 following administration. As used herein, dosing in mg/kg is also referred to as “mpk.” MB49 cells were inoculated subcutaneously into C57/BL6-huCTLA4 mice. Treatment started when the tumors reached approximately 350 mm^3. […]
Pharmacodynamics is assessed by administering antibody to each of five cohorts of mice, with dosing (mg/kg) as shown in Table 16. Immunophenotyping among other readouts are performed in the tumor, liver, spleen, and blood. T cells are assessed by measuring Foxp3+CD25+ cells as a percentage of CD4+ cells, and CD8+ cells are measured as a percentage of CD45+ cells. Cleavage and drug levels in tumors, liver, kidney, spleen, and plasma is also assessed.

With CNLIVEGHC the “binding to isotype control antibody” value (9D9 antibody) was “did not bind”.
In the case of LSGRSNAMPYDLYHP [AK-09], the “ranking as substrate (relative efficiency)” value (MC38 conditioned media) is reported as “best substrates” and the “ranking as substrate (relative efficiency)” value (NAT conditioned media) is reported as “better performing substrates”.
For MPYDLYHPRQARVVG [AK-10], the “ranking as substrate (relative efficiency)” value (MC38 conditioned media) was “best substrates” and the “ranking as substrate (relative efficiency)” value (NAT conditioned media) was “better performing substrates; also recorded: most efficient NAT substrate”.
In the case of RGGDSGGFMLTGGK [AK-05], the “ranking as substrate (relative efficiency)” value (NAT conditioned media) is reported as “weaker substrates”.
RGGMPYDLYHPGGK [AK-04] was tested, and the “ranking as substrate (relative efficiency)” value (NAT conditioned media) was “better performing substrates” and the “ranking as substrate (relative efficiency)” value (tumor conditioned media) was “top cleavages”.
With RGGVPLSLYSGGGK [AK-03] the “ranking as substrate (relative efficiency)” value (tumor conditioned media) was “top cleavages”.
ipilimumab [reference compound] was tested, and the “Regulatory T cell depletion and CD8+ T cell activation in the tumor microenvironment” value (MB49 tumors) was “not”.
